Results: paper PMC10671498, “Antiproliferative and Cytotoxic Properties of Propynoyl Betulin Derivatives against Human Ovarian Cancer Cells: In Vitro Studies” (International Journal of Molecular Sciences, 2023)
Where two headings read alike, the source gives them in different places.

Experiments:
[1] = test system: OVCAR-3 cells; assay: SRB cell proliferation assay, OVCAR-3; format: cell-based, human; details: for IC50: Homo sapiens
Description: OVCAR-3 cells (ATCC No. HTB-161™) were cultured in RPMI-1640 medium containing HEPES buffer (2.383 g/L), sodium bicarbonate (1.5 g/L), sodium pyruvate (0.11 g/L) supplemented with 20% fetal bovine serum, 10 µg/mL bovine insulin, 100 U/mL penicillin, and 100 μg/mL streptomycin (all from Sigma Aldrich).
(§1) Betulin 1 and its derivatives were dissolved in dimethyl sulfoxide (DMSO; Sigma Aldrich) as a 15 mM stock solution. Working solutions were prepared through the dilution of stock solutions with culture medium. The final DMSO concentration in culture media was adjusted to 0.2%. The effect of tested compounds on the proliferation of SK-OV-3 and OVCAR-3 cells was measured using the In Vitro Toxicology Assay Kit, Sulforhodamine B based (Sigma Aldrich). Cells were seeded in 96-well plates (Greiner Bio-One, Kremsmünster, Austria) at an initial density of 3 × 10^3 cells per well in 200 µL of culture medium. After 24 h of incubation, betulin 1 and its derivatives at a concentration range of 0.1 μM to 30 μM were added to the wells. Control cultures were treated with vehicle alone (0.2% DMSO). The incubation periods for cells with test compounds were 1 day, 3 days, and 5 days. After appropriate incubation periods, culture media were removed, and cells were fixed in 10% trichloroacetic acid solution for 60 min at 4 °C. After fixation, the TCA solution was removed, and the plates were washed three times with deionized water (300 μL/well) and dried. At the next step, cells were stained with 0.4% sulforhodamine B for 30 min. The excess dye was removed by washing three times with 1% (vol/vol) acetic acid. The protein-bound dye was dissolved in 200 μL 10 mM Tris base solution. Absorbance was measured at 570 nm and 690 nm (reference wavelength) using the MRX Revelation plate reader (Dynex Technologies, Chantilly, VA, USA).
(§2) GraphPad Prism 10.0.2 (GraphPad Software Inc., San Diego, CA, USA) software was used for calculations and the statistical analysis of the IC50 values (Table 1). IC50 was determined by using the “nonlinear regression” mode, and the “log(inhibitor) vs. normalised response—Variable slope” equation was chosen in GraphPad Prism software for calculations. The obtained data were normalized to run from 100% down to 0%, and logarithms of concentration were used. Graphs (Figure 2, Figure 3, Figure 4, Figure 5 and Figure 8, and Supplementary Figure S1) were also prepared using this software. In the case of the lack of normal distribution or homogeneity of variances, the remaining results were analyzed using a non-parametric Kruskal–Wallis test with multiple comparisons. Post hoc analysis was performed with the non-parametric equivalent of Tukey’s test. A p value of <0.05 was considered statistically significant. Otherwise, a one-way ANOVA followed by a Tukey’s post hoc test was applied. t-tests was used to perform pairwise comparisons between group means. Analysis was performed using Statistica 13.1 software (StatSoft, Tulsa, OK, USA).

[2] = test system: 18Co normal myofibroblasts; assay: SRB cell proliferation assay, 18Co normal myofibroblasts; format: cell-based; details: 18Co, Neg: negative in the concentration used
Description: Next, 18Co cells (ATCC No. CRL-1459™) were cultured in MEM medium containing HEPES buffer, 10% fetal bovine serum, 100 U/mL penicillin, and 100 μg/mL streptomycin (all from Sigma Aldrich).
as §1, §2

[3] = test system: OVCAR-3 cells; assay: LDH release assay, OVCAR-3; format: cell-based, human; details: OVCAR-3, 24 h
Description: In order to evaluate the cytotoxic effect, the release of LDH into the culture medium using the In Vitro Toxicology Assay Kit, Lactic Dehydrogenase Based (TOX7; Sigma Aldrich) was assessed. SK-OV-3 and OVCAR-3 cells were plated and cultured in 96-well plates (Greiner Bio-One) at the initial density of 5 × 10^3 cells per well in 100 µL of culture medium. The density of the cells was determined in the same manner as in the SRB assay. After 24 h, the media were replaced with the working solutions, which contained appropriate test compounds at concentrations of 3 μM, 10 μM, 30 μM, and control medium (0.2% DMSO). Cells were exposed to the test substances for 24 h. The background control comprised wells without cells with only control medium. To determine the maximal LDH release (high control), half of the control cultures were treated with lysis buffer. Wells with untreated cells were used as the low control of the assay. LDH activity in media was assessed according to the manufacturer’s protocol. The absorbance was measured at wavelengths of 490 nm and 690 nm (background), and the percentage of released enzyme was calculated for cells growing in the presence of compounds according to the formula:Cytotoxicity [%] = [(AT − AL)/(AH − AL)] × 100 where AT is the absorbance of treated wells; AL is low control; and AH is high control (maximal LDH release).
Cytotoxicity was expressed as a percentage of the released LDH calculated according to the difference between the absorbance of the treated and low control wells divided by the difference between the absorbance of the high control and low control wells.

[4] = test system: SK-OV-3 cells; assay: DNA fragmentation assay (Cell Death Detection ELISA, cytoplasmic fraction), SK-OV-3; format: cell-based, human; details: for DNA fragmentation (enrichment factor, internucleosomal DNA fragments): SK-OV-3, 24 h, 3, 10, 30 µM
Description: (§3) Fragmentation of genomic DNA was determined by means of the Cell Death Detection ELISAPLUS kit (Roche, Basel, Switzerland). This method rests on the immunoenzymatic detection of DNA–histone complexes in the cytoplasmic cell fraction or cell culture supernatants. Cells were plated and cultured in 96-well plates (Greiner Bio-One) at the initial density of 5 × 10^3 cells per well in 100 µL of culture medium. Cells were allowed to attach and grow for 1 day prior to the addition of test reagents. Then, the media were replaced with the working solutions (3 µM, 10 µM, 30 µM), and cells were exposed to compounds 2–6 for 24 h. In some cases, 5 µM cyclosporin A (CsA, an inhibitor of the mitochondrial permeability transition) was added to the cells 30 min before treatment with the betulin derivative. Subsequently, cells were incubated concomitantly with both compounds. After a 24 h incubation period, plates were centrifuged (200× g; 10 min), media were removed, and cells were lysed for 30 min at room temperature. At the next step, the lysates were again spun (200× g; 10 min), and 20 µL of supernatants (cytoplasmic fractions) was moved to the new 96-well streptavidin-coated plate. In one experiment, the presence of mono- and oligonucleosomes was determined in 20 µL samples of centrifuged culture supernatants (media) to detect the permeability of plasma membrane (considered as an indicator of cell necrosis). Then, the sandwich ELISA assay was fulfilled according to the manufacturer’s protocol. Absorbance was measured at 405 nm and 490 nm (reference wavelength), and the enrichment factor of the cytoplasmic (or supernatant) fraction in mono- and oligonucleosomes was calculated according to the formula: EF = absorbance of sample cells/absorbance of control cells.
(§4) A high EF index in the cytoplasmic fraction (resulting from DNA fragmentation while maintaining the tightness of cell membranes) is a typical indicator of the relatively early stage of apoptosis.

[5] = test system: OVCAR-3 cells; assay: DNA fragmentation assay (Cell Death Detection ELISA, cytoplasmic fraction), OVCAR-3; format: cell-based, human; details: OVCAR-3, 24 h; for DNA fragmentation (number of mono- and oligonucleosomes): 3 µM and 10 µM
Description: as §3, §4

## C=C(C)[C@@H]1CC[C@]2(CO)CC[C@]3(C)[C@H](CC[C@@H]4[C@@]5(C)CC[C@H](O)C(C)(C)[C@@H]5CC[C@]43C)[C@@H]12 [Compound 1, lup-20(29)-ene-3β,28-diol, reference compound]
[1]; 72 h, OVCAR-3, 3 days treatment, SRB assay, read-out: IC50
  IC50: 9.03 µM
[1]; 120 h, OVCAR-3, 5 days treatment, SRB assay, read-out: IC50
  IC50: 10.1 µM
[2]; 3 days treatment
  IC50: Neg
[2]; 5 days treatment
  IC50: Neg
[3]; 30 µM
  cytotoxicity (released LDH), loss of cell membrane integrity: loss of cell membrane integrity was also confirmed
[4]
  DNA fragmentation (enrichment factor, internucleosomal DNA fragments): significant increase
[5]
  DNA fragmentation (number of mono- and oligonucleosomes): comparable to the control
[5]; 30 µM
  DNA fragmentation (enrichment factor): caused an increase in DNA fragmentation

## C#CC(=O)OC[C@]12CC[C@@H](/C(C)=C/P(=O)(OCC)OCC)C1C1CCC3[C@@]4(C)CC[C@H](O)C(C)(C)C4CC[C@@]3(C)[C@]1(C)CC2 (some centres unmarked) [Compound 6, E-29-diethoxyphosphoryl-28-O-propynoylbetulin]
[1]; OVCAR-3, 72 h
  IC50: 0.68 µM
[1]; OVCAR-3, 120 h
  IC50: 0.59 µM
[1]; OVCAR-3, SRB assay, 0.1–30 µM
  concentration at which antiproliferative activity (decrease in the number of cells) was evident: 1 µM
[2]; 3 days treatment
  IC50: Neg
[2]; 5 days treatment
  IC50: Neg
[3]; all concentrations (3, 10, 30 μM)
  cytotoxicity (released LDH): significant cytotoxic activity
[4]
  DNA fragmentation (enrichment factor, internucleosomal DNA fragments): moderate increases
[4]; SK-OV-3, 24 h, with 5 µM cyclosporin A added 30 min before
  effect of CsA on compound-induced cell death, DNA fragmentation: almost completely prevented
[5]
  DNA fragmentation (number of mono- and oligonucleosomes): slightly smaller effect than the lowest concentration of compound 4
